Source: patent US9029384B2, “Phosphatidylinositol 3-kinase inhibitors” (Gilead Calistoga LLC, priority 2012, dated 2015)
pEC50, pIC50: −log10 of the molar value. Read-outs that look alike come from different tables or passages of the source.

How the values were obtained:
PI3Kδ = molecular target: T1, PI3Kδ (Homo sapiens, UniProt O00329); test: Enzymatic activity of PI3K isoforms, TR-FRET assay (PIP3 formation); format: biochemical; details: PI3Kδ; TR-FRET, 2×Km ATP, 10 μM PIP2; read-out: IC50
T1 construct: made in house
Summary of the method: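 Recombinant heterodimeric class I PI3K; PIP3 product measured by TR-FRET competition with labelled PIP3 for Eu-GRP-1 PH domain. Reaction 30 min at 25 °C, stopped with 10 mM EDTA.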

basophils = test: Basophil activation in human whole blood (Flow2 CAST kit, CD63 positive cells); format: cell-based
Summary of the method: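 Human whole blood (K2-EDTA) preincubated 60 minutes at 37° C with compound serial dilutions or DMSO (0.3% final), then stimulated with anti-FcεRI mAb or fMLP and stained for CD63/CCR3. Percent CD63+ among ≥200 CCR3-high basophils by flow cytometry, normalized to stimulated vehicle as 100%. EC50 from four-parameter fits, geometric means in nM, concentrations corrected for reagent dilution.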

[1] = Hepatocyte stability, 0.01% final DMSO, 1 μM substrate (t1/2^b); format: in vitro ADME; details: human, hepatocytes, TA with 0.01% final DMSO
Description: Alternatively, assay reagents and/or conditions can be modified in determining the inhibitory activities to PI3K isomers. In additional studies, similar assay using TA and 0.01% final DMSO concentration were incubated with 1 million hepatocytes/mL at 1 μM substrate in duplicate. The incubation was carried out at 37° C. with 5% CO2 and saturating humidity.

[2] = Homo sapiens, basophils activated with anti-FcεRI mAb or fMLP, geometric mean
[3] = 1 μM substrate, samples at 0, 1, 3, 6 hours, read-out: human hepatocyte t½^b

T1 sequence (O00329 whole entry, canonical isoform): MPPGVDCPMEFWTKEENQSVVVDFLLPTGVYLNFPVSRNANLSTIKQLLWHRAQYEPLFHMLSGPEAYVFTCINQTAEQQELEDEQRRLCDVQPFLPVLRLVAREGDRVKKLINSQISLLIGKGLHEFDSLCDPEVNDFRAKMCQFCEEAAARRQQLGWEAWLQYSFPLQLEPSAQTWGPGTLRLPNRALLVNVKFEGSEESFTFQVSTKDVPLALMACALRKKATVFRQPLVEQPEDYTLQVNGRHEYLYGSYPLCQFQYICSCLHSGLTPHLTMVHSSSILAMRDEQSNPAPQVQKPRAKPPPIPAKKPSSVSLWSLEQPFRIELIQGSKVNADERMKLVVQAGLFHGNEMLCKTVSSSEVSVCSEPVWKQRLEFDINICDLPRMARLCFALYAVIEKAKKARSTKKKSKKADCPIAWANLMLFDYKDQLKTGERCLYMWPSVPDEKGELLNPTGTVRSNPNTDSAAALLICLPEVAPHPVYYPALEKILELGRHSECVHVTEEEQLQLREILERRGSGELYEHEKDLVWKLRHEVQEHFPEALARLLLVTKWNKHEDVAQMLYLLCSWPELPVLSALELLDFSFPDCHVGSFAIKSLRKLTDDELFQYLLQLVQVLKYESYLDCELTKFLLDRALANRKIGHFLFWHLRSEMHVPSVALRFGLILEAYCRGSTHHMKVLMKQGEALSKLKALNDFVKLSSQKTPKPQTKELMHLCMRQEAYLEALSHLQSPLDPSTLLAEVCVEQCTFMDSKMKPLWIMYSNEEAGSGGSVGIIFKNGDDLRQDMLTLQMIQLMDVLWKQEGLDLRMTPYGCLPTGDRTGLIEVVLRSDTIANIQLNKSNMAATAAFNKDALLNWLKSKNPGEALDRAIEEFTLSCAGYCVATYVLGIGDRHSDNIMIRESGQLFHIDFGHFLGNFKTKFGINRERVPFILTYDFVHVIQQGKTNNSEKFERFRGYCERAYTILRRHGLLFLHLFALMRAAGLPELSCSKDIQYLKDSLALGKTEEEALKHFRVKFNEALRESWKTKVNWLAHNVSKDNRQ
T1 sequence (P27986 whole entry partner, canonical isoform): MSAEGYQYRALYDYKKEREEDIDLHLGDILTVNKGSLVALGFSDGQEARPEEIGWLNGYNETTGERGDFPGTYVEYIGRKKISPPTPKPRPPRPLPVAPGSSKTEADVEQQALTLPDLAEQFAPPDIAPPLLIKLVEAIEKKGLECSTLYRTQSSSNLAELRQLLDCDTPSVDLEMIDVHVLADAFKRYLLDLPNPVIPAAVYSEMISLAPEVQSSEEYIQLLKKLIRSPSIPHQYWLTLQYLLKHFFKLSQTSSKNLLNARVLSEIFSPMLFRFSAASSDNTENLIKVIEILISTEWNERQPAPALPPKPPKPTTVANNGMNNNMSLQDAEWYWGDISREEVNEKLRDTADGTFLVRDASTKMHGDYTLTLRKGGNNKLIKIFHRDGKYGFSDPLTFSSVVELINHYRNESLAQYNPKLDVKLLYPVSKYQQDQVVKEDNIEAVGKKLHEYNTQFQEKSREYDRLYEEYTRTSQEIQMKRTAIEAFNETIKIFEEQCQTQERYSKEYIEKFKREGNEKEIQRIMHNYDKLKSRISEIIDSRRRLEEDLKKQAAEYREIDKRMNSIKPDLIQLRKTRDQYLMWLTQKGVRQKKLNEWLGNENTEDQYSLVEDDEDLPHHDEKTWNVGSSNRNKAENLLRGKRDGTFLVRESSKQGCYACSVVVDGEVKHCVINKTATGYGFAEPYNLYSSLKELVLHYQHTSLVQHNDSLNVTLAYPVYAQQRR

| pIC50 (PI3Kδ) | pEC50 (basophils; [2]) | half-life at 1 μM [1, 3] | pEC50 (basophils; basophils activated with anti-FcεRI mAb or fMLP, geometric mean) | pEC50 (basophils; Homo sapiens, basophil activation) | half-life at 1 μM ([1]; human hepatocytes, read-out: t1/2^b) | SMILES |
| --- | --- | --- | --- | --- | --- | --- |
| 8.00 to 9.00 | 8.00 to 9.00 | > 10 h | – | – | – | CC(Nc1nc(N)nc(N)c1C#N)c1nc2cccc(C(F)F)c2c(=O)n1-c1cccc(C#N)c1 (single isomer, unassigned) [Compound 63a] |
| > 9.00 | – | 1 to 3 h | > 9.00 | – | – | Cc1ccc(C(F)F)cc1-n1c(C(C)Nc2nc(N)nc(N)c2C#N)nc2cccc(Cl)c2c1=O (single isomer, unassigned) [Compound 188a-2] |
| 8.00 to 9.00 | 8.00 to 9.00 | 3 to 6 h | – | – | – | CC(Nc1nc(N)nc(N)c1C#N)c1nc2c(C#N)cccc2c(=O)n1-c1cccc(C(F)F)c1 (single isomer, unassigned) [Compound 160a] |
| > 9.00 | 7.30 to 8.00 | 6 to 10 h | – | – | – | CC(Nc1nc(N)nc(N)c1C(N)=O)c1nc2cccc(Cl)c2c(=O)n1-c1ccccc1 (single isomer, unassigned) [Compound 183a] |
| 8.00 to 9.00 | 8.00 to 9.00 | > 10 h | – | – | – | CC(Nc1nc(N)nc(N)c1C#N)c1nc2cccc(Cl)c2c(=O)n1-c1cccc(C#N)c1 (single isomer, unassigned) [Compound 12a] |
| 8.00 to 9.00 | 7.30 to 8.00 | > 10 h | – | – | – | CC(Nc1nc(N)nc(N)c1C#N)c1nc2c(C#N)cc(F)cc2c(=O)n1-c1ccccc1 (single isomer, unassigned) [Compound 155a] |
| 7.30 to 8.00 | 8.00 to 9.00 | > 10 h | – | – | – | CCC(Nc1nc(N)nc(N)c1C#N)c1nc2ccc(F)cc2c(=O)n1-c1cc(F)cc(F)c1 (single isomer, unassigned) [Compound 26a] |
| 7.30 to 8.00 | 7.30 to 8.00 | > 10 h | – | – | – | CC(Nc1nc(N)nc(N)c1C#N)c1nc2cccc(C(N)=O)c2c(=O)n1-c1cc(F)cc(F)c1 (single isomer, unassigned) [Compound 91a] |
| 8.00 to 9.00 | 8.00 to 9.00 | 6 to 10 h | – | – | – | CC(Nc1nc(N)nc(N)c1C#N)c1nc2c(Cl)cc(F)cc2c(=O)n1-c1cc(F)cc(F)c1 (single isomer, unassigned) [Compound 89a] |
| 8.00 to 9.00 | 8.00 to 9.00 | > 10 h | – | – | – | CC(Nc1nc(N)nc(N)c1C#N)c1nc2cccc(C#N)c2c(=O)n1-c1cc(F)cc(F)c1 (single isomer, unassigned) [Compound 112a] |
| 7.30 to 8.00 | 8.00 to 9.00 | > 10 h | – | – | – | CC(Nc1nc(N)nc(N)c1C#N)c1nc2ccc(F)c(F)c2c(=O)n1-c1cc(F)cc(F)c1 (single isomer, unassigned) [Compound 29a] |
| 8.00 to 9.00 | 8.00 to 9.00 | 1 to 3 h | – | – | – | COCC(Nc1nc(N)nc(N)c1C#N)c1nc2cccc(Cl)c2c(=O)n1-c1cc(F)cc(F)c1 (single isomer, unassigned) [Compound 135a] |
| > 9.00 | > 9.00 | 1 to 3 h | – | – | – | COc1cccc(-n2c(C(C)Nc3nc(N)nc(N)c3C#N)nc3cccc(Cl)c3c2=O)c1 (single isomer, unassigned) [Compound 185a] |
| 7.30 to 8.00 | 8.00 to 9.00 | > 10 h | – | – | – | CC(Nc1nc(N)nc(N)c1C#N)c1nc2ccc(F)cc2c(=O)n1-c1cccc(C#N)c1 (single isomer, unassigned) [Compound 13a] |
| 8.00 to 9.00 | 7.30 to 8.00 | 1 to 3 h | – | – | – | COc1cc(C(F)F)cc(-n2c(C(C)Nc3nc(N)nc(N)c3C#N)nc3cccc(Cl)c3c2=O)c1 (single isomer, unassigned) [Compound 190a] |
| 7.30 to 8.00 | 8.00 to 9.00 | 6 to 10 h | – | – | – | CC(Nc1nc(N)nc(N)c1C#N)c1nc2c(F)ccc(F)c2c(=O)n1-c1cccc(C#N)c1 (single isomer, unassigned) [Compound 149a] |
| 8.00 to 9.00 | 8.00 to 9.00 | > 10 h | – | – | – | CC(Nc1nc(N)nc(N)c1C#N)c1nc2c(Cl)cccc2c(=O)n1-c1ccccc1 (single isomer, unassigned) [Compound 22a] |
| 8.00 to 9.00 | 8.00 to 9.00 | 3 to 6 h | – | – | – | C[C@H](Nc1nc(N)nc(N)c1C#N)c1nc2cccc(F)c2c(=O)n1-c1cccc(C(F)F)c1 [Compound 121a, (S)-2,4-diamino-6-(1-(3-(3-(difluoromethyl)phenyl)-5-fluoro-4-oxo-3,4-dihydroquinazolin-2-yl)ethylamino)pyrimidine-5-carbonitrile] |
| 7.30 to 8.00 | 8.00 to 9.00 | > 10 h | – | – | – | CC(Nc1nc(N)nc(N)c1C#N)c1nc2ccccc2c(=O)n1-c1cc(F)cc(F)c1 (single isomer, unassigned) [Compound 28a] |
| 8.00 to 9.00 | 8.00 to 9.00 | 1 to 3 h | – | – | – | CC(Nc1nc(N)nc(N)c1C#N)c1nc2cccc(Cl)c2c(=O)n1-c1cccc(CC(F)F)c1 (single isomer, unassigned) [Compound 120a] |
| > 9.00 | 8.00 to 9.00 | 1 to 3 h | – | – | – | COc1cccc(-n2c(C(C)Nc3nc(N)nc(N)c3C#N)nc3cccc(Cl)c3c2=O)c1C (single isomer, unassigned) [Compound 109a-2] |
| 8.00 to 9.00 | 8.00 to 9.00 | 3 to 6 h | – | – | – | CC(Nc1nc(N)nc(N)c1C#N)c1nc2cccc(Cl)c2c(=O)n1-c1cccc(C(F)(F)F)c1 (single isomer, unassigned) [Compound 47a] |
| 8.00 to 9.00 | > 9.00 | 6 to 10 h | – | – | – | CC(Nc1nc(N)nc(N)c1C#N)c1nc2c(F)ccc(Cl)c2c(=O)n1-c1cccc(C#N)c1 (single isomer, unassigned) [Compound 181a] |
| 8.00 to 9.00 | 8.00 to 9.00 | 3 to 6 h | – | – | – | CCC(Nc1nc(N)nc(N)c1C#N)c1nc2c(F)ccc(F)c2c(=O)n1-c1ccccc1 (single isomer, unassigned) [Compound 150a] |
| > 9.00 | 8.00 to 9.00 | 3 to 6 h | – | – | – | CC(Nc1nc(N)nc(N)c1C#N)c1nc2cccc(Cl)c2c(=O)n1-c1cccc(Cl)c1 (single isomer, unassigned) [Compound 8a] |
| 7.30 to 8.00 | 8.00 to 9.00 | > 10 h | – | – | – | CC(Nc1nc(N)nc(N)c1C#N)c1nc2ccc(F)c(Cl)c2c(=O)n1-c1cccc(C#N)c1 (single isomer, unassigned) [Compound 176a] |
| 8.00 to 9.00 | 8.00 to 9.00 | > 10 h | – | > 8.70 | > 20 h | CC(Nc1nc(N)nc(N)c1C#N)c1nc2cccc(F)c2c(=O)n1-c1cccc(F)c1 (single isomer, unassigned) [Compound 182a] |
| 8.00 to 9.00 | 8.00 to 9.00 | 6 to 10 h | – | – | – | CC(Nc1nc(N)nc(N)c1C#N)c1nc2cccc(Cl)c2c(=O)n1-c1c(F)cccc1F (single isomer, unassigned) [Compound 145a] |
| 8.00 to 9.00 | 8.00 to 9.00 | 6 to 10 h | – | – | – | CCC(Nc1nc(N)nc(N)c1C#N)c1nc2cccc(F)c2c(=O)n1-c1cccc(F)c1 (single isomer, unassigned) [Compound 179a] |
| 7.30 to 8.00 | 8.00 to 9.00 | 6 to 10 h | – | – | – | CC(Nc1nc(N)nc(N)c1C#N)c1nc2c(C(F)F)cccc2c(=O)n1-c1ccccc1 (single isomer, unassigned) [Compound 56a] |
